For this series, the system named is carbohydrate overload model of acute laminitis in horses. The series can be described thus: Oligofructose (carbohydrate) overload model of acute laminitis, LTNF peptide study KLM-15-02. In kind it is in vivo. The following applies: all horses that received the intravenous peptide, 2 to 8 grams. The method, then: This communication is a brief report on the results obtained from the recent clinical study to evaluate the potential prophylactic and/or therapeutic properties of KLM's proprietary application of a 15 amino acid sequence termed LTRF in saline when employed in a carbohydrate overload model of acute laminitis in horses.
In compliance with the methods outlined in protocol KLM-15-02, nine healthy, mature horses between 4 and 9 years of age were evaluated for enrollment in the clinical study. […] Preliminary examinations were deemed normal for all candidates. Eligible candidates underwent a formal acclimation period of 10 days, during which feed, water, housing and management were identical to conditions of the actual study. On Days −3, −2, and −1, oligofructose was added to the a.m. grain ration of each candidate at a dosage of 1 gram per kg body weight.
Prior to induction on Day 0, a baseline lameness exam was repeated and captured on video. […]
At regular, 6-hr intervals after induction, the general health of each horse was assessed, a lameness exam was repeated, and rectal temperature was monitored. Once diarrhea had begun, each horse's hydration status was monitored at 2- to 4-hr intervals by assessing its packed cell volume (PCV; hematocrit) and plasma total protein concentration. […]

Ends that are not written are not given here.

In the case of “LKAMDPTPPLWIKTE [LTNF peptide, Leu-Lys-Ala-Met-Asp-Pro-Thr-Pro-Pro-Leu-Trp-Ile-Lys-Thr-Glu]”, the “signs of immune reaction or toxicity” value was “no signs of immune reaction or toxicity”.

(Values after patent publication US20240309069A1, “COMPOSITIONS AND METHODS FOR TREATMENT OF DISEASES” (Byrock Technologies Limited, priority 2014, published 2024).)
